# Assays:
# EC1007 KPC-3 = experiment: Dose titration biapenem potentiation assay (MPC1); format: cell-based, Escherichia coli; conditions: biapenem 1 μg/mL
# In short: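 Growth of carbapenemase-expressing strains measured with biapenem held at a sub-inhibitory 1 μg/mL; BLI compounds titrated from a top concentration of 40 μg/mL. MPC1 is the inhibitor concentration that restores growth inhibition by biapenem.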
# [1] = test system: Acinetobacter baumannii AB1054 (OXA-23); experiment: Checkerboard assay, biapenem potentiation (MPC8); format: cell-based; conditions: concentration to reduce biapenem MIC 8-fold
# Experimental: (§1) The potency and spectrum of β-lactamase inhibitors was determined by assessing their antibiotic potentiation activity.
# (§2) The potentiation effect is observed by the reduction of the minimum inhibitory concentration of β-lactam antibiotics in the presence of β-lactamase inhibitors (BLIs). […] Methods for Dilution of Antimicrobial Susceptibility Tests for Bacteria That Grow Aerobically—Eighth Edition; Approved Standard. CLSI Document M07-A8, 2009). In this assay, multiple dilutions of two drugs, namely BLI and β-lactam (biapenem), are being tested, alone and in combination, at concentrations equal to, above and below their respective minimal inhibitory concentrations (MICs). BLIs are solubilized in 10% DMSO at 10 mg/mL. Stock solutions are further diluted, according to the needs of a particular assay, in Mueller Hinton Broth (MHB). Stock solution can be stored at −80° C.
# (§3) The checkerboard (CB) assay is performed in microtiter plates. Biapenem is diluted in the x axis, each column containing a single concentration of antibiotic. BLIs are diluted in the y axis, each row containing an equal concentration of BLI. The result of these manipulations is that each well of the microtiter plate contains a unique combination of concentrations of the two agents. The assay is performed in MHB with a final bacterial inoculum of 5×10^5 CFU/mL (from an early-log phase culture). Microtiter plates are incubated during 20 h at 35° C. and are read using a microtiter plate reader (Molecular Devices) at 650 nm as well as visual observation using a microtiter plate reading mirror.
# (§4) Biapenem is a carbapenem β-lactam; only selected β-lactamases confer resistance to this class of antibiotics. Among them are serine carbapemenases that belong to class A and class D. Biapenem potentiation is studied in strains expressing various carbapenemases from these classes using CB assays. […] Cyclic boronic acid derivatives were capable of reducing biapenem MICs up to 1000-fold (Table 3).
# [2] = test system: Acinetobacter baumannii AB1057 (OXA-58); experiment: Checkerboard assay, biapenem potentiation (MPC8); format: cell-based; conditions: concentration to reduce biapenem MIC 8-fold
# Experimental: as §1, §2, §3, §4
# [3] = test system: Klebsiella pneumoniae KP1004 (KPC-2); experiment: Checkerboard assay, biapenem potentiation (MPC8); format: cell-based; conditions: concentration to reduce biapenem MIC 8-fold
# Experimental: as §1, §2, §3, §4
structure (smiles),measurement,setting,value
"O=C(O)C[C@@H]1CC[C@H](NC(=O)Cc2cccs2)B(O)O1 [Compound 5, 2-((3R,6S)-2-hydroxy-3-(2-(thiophen-2-yl)acetamido)-1,2-oxaborinan-6-yl)acetic acid]",BPM MPC1 EC1007 KPC-3,EC1007 KPC-3,X (X = MPC1 of less than 1 μg/mL.)
same,MPC8,[1],Z (Z = MPC8 of greater than 1 μg/mL.)
same,MPC8,[2],Z (Z = MPC8 of greater than 1 μg/mL.)
same,MPC8,[3],X (X = MPC8 of less than 0.16 μg/mL.)
